Test results reported in US7018456B2, “Phthalocyanine compound, water-base ink composition and colored material” (Nippon Kayaku Kabushiki Kaisha, priority 2002, dated 2006).

Test: Water-solubility of the phthalocyanine compound
Type: physicochemical
Settings: at the ordinary temperature
Method: 300 parts of wet cake containing 53.6 parts of tetramino copper phthalocyanine (0.085 mol) were suspended in 360 parts of water in a four-neck flask equipped with a condenser, followed by heating to 60° C. with stirring, dropping 9.5 parts of acetic anhydride (0.093 mol) at the same temperature and stirring at the same temperature for 5 hours. Successively 0.2 parts of hydroquinone and 95.4 parts of acrylic acid […] were added, followed by heating to 80° C. and stirring with keeping the same temperature for 12 hours. Judging from the reaction, mixture of several compounds though it is, the reaction product is found to correspond to a compound which comprises tetramino phthalocyanine having on average one introduced acyl group (acetylamino) and three introduced carboxyethyl per molecule, namely the desired monoacetylamino(2-tricarboxyethylamino) copper phthalocyanine.

water-solubility: about 10 % by mass
Substance: monoacetylamino(2-tricarboxyethylamino) copper phthalocyanine [Example 5]
